Paper PMC10778198, “First-in-Human Dose-Escalation Study of the Novel Oral Depsipeptide Class I-Targeting HDAC Inhibitor Bocodepsin (OKI-179) in Patients with Advanced Solid Tumors” (Cancers, 2023)
“And” between values parts separate entries of the source, which are not always exact repeats. Equal entries are not always repeated. Where two headings read alike, the source gives them in different places.

What was measured:
Type in all cases: in vivo, human
[1] = plasma pharmacokinetics by LC-MS/MS in patients; conditions: human, plasma, oral, 300 mg, plasma; for AUC(0-t): read-out: AUClast of OKI-179; for Cmax: read-out: Cmax of OKI-179; for Tmax: read-out: Tmax of OKI-179
Description: Blood samples were collected immediately prior to the first dose on cycle 1 and day 1, and then at 0.25, 0.5, 1, 2, 4, 8, and 24 h after taking OKI-179 on days 1 and 15. Additional samples were collected pre-dose and 2 and 4 h after OKI-179 administration on day 18 in later cohorts. Blood samples were stabilized with sodium fluoride and formic acid immediately after collection to arrest the additional conversion of the prodrug OKI-179 to OKI-006. Plasma was further stabilized using ascorbic acid prior to low-temperature storage.
Plasma concentrations of OKI-179 and OKI-006 were analyzed using validated liquid chromatography-mass spectrometry (LC-MS/MS) (Quintara Discovery Inc., Hayward, CA, USA). OKI-006 contains a free thiol moiety that can reversibly react with endogenous molecules in the blood and tissue, resulting in “bound” OKI-006. The unreacted OKI-006 is considered “free”. As bound OKI-006 can reversibly convert to free OKI-006 in vivo, both the free and “total” (free plus bound) concentrations of OKI-006 are considered pharmacologically relevant and were therefore quantified as part of this study. Bioanalytically, the total OKI-006 was measured by chemically converting all bound OKI-006 to free OKI-006 prior to analysis using the free OKI-006 bioanalytical method.
The AUClast was calculated from time zero to the time of the last quantifiable concentration for OKI-179, free OKI-006, and total OKI-006.

[2] = tested on: histone acetylation (Ac-H3K27) in circulating T cells; experiment: histone acetylation in circulating T cells (PBMC flow cytometry)
Description: Blood samples for acetylated (Ac)-H3K27, Ac-H3K9, and Ac-lysine levels in peripheral blood mononuclear cells (PBMCs) were collected in cycle 1. Samples were collected immediately prior to dosing and at 2, 8, and 24 h post-dosing on days 1 and 15. Blood samples were processed within 3 h of collection, and isolated PBMCs were washed and resuspended in cell cell-freezing medium. Cells were stored at ≤−70 °C prior to shipment to the University of Texas at Austin Dell Medical School (UTDMS) for analysis. Briefly, patient PBMCs were thawed at 37 °C for 5 min, washed with flow wash buffer containing PBS/2% FBS/5 mM EDTA, and stained for 30 min on ice with the following: fixable viability dye (BioLegend 423106; Zombie NIR^TM, San Diego, CA, USA), CD3 (Biolegend; Clone OKT3), CD4 (BioLegend; Clone SK3), and CD8 (Biolegend; Clone RPA-T8). All samples were washed twice before being fixed and permeabilized using a BD Biosciences (Hunt Valley, MD, USA) Cytofix/Cytoperm™ kit (RRID: AB_2869008) according to the manufacturer’s protocol and stained for 30 min for intracellular acetylation markers: Ac-H3K27 (Cell Signaling Technology; Clone D5E4), Ac-H3K9 (Cell Signaling Technology, Danvers, MA, USA; Clone CFB11), and total Ac-lysine (BioLegend; Clone 15G10). All cells were analyzed on a Cytek Aurora (5 L 16UV-16V-14B-10YG-8R). Spectral unmixing was performed based on fluorophore-specific single-color cells and compensation bead (ThermoFisher 01-2222-41, Waltham, MA, USA) controls using SpectroFlo© software (v3). All post-acquisition analyses were performed using FlowJo software (v10.3). Results are shown as fold-changes from pre-dose values for each patient and day.
Descriptive statistics were used for baseline characteristics, safety assessments, pharmacokinetic variables, exploratory assessments, and efficacy analysis, including the duration of response and time to progression. Tables were used to summarize the data across the cohort of patients and various dosing groups. Geometric means were used to calculate plasma concentration-time profiles. […]

advanced solid tumors = experiment: antitumor activity by RECIST 1.1
Description: Patients were continuously evaluated for adverse events throughout the study using the Common Terminology Criteria of Adverse Events (CTCAE v. 5). The patients underwent a clinical history and physical examination, an ECOG PS, a complete blood count (CBCs), chemistry, coagulation studies, urinalysis, a serum pregnancy test (as applicable), a triplicate ECG, an ophthalmology examination, and baseline tumor assessment at screening. During cycle 1, weekly history and physical examination, CBC, chemistry, coagulation parameters, urinalysis, and triplicate ECGs were performed; in subsequent cycles, weekly labs were limited to a CBC. Repeat ophthalmology examinations were performed at cycle 3, day 1, and at the end of treatment. Repeat tumor assessment was performed every 2 cycles (6 weeks) in accordance with RECIST 1.1. Descriptive statistics were used for baseline characteristics, safety assessments, pharmacokinetic variables, exploratory assessments, and efficacy analysis, including the duration of response and time to progression. Tables were used to summarize the data across the cohort of patients and various dosing groups. Geometric means were used to calculate plasma concentration-time profiles. Fold changes from baseline were used to calculate acetylation.

[3] = 300-mg 5:2, Cycle 1 Day 15, geometric mean

CC(C)[C@H](N)C(=O)SCC/C=C/[C@@H]1CC(=O)NCc2nc(cs2)C(=O)NC(C)(C)C(=O)N[C@@H](C(C)C)C(=O)O1 [OKI-179, Bocodepsin]
AUC(0-t) ([1]; 300 mg 5:2 cohort, mean single-dose): 253 ng·h/mL | Cmax ([1]; 300-mg 5:2, Cycle 1 Day 1, geometric mean, N=6): 142 ng/mL | AUC(0-t) ([1]; 300-mg 5:2, Cycle 1 Day 1, geometric mean): 253 ng·h/mL | Tmax ([1]; 300-mg 5:2, Cycle 1 Day 1, median): 0.875 h | half-life ([1]; 300-mg 5:2, Cycle 1 Day 1, median, read-out: t1/2 of OKI-179 (converted)): 1.75 h | AUC(0-t) [1, 3]: 374 ng·h/mL | Cmax [1, 3]: 215 ng/mL | Tmax ([1]; 300-mg 5:2, Cycle 1 Day 15, median): 0.934 h | half-life ([1]; 300-mg 5:2, Cycle 1 Day 15, median, read-out: t1/2 of OKI-179 (converted)): 1.74 h | half-life ([1]; day 15, 300 mg 5:2, read-out: terminal half-life (t1/2) of OKI-179 (converted)): ~1.7 h | increase in histone acetylation ([2]; 300 mg doses, 2 h after dosing, days 1 and 15, T cells): 6 fold | increase in H3K27 acetylation in CD4 T cells ([2]; doses >200 mg): greater than 6 fold | increase in H3K27 acetylation in circulating T cells ([2]; doses of 200 mg or greater): > 6 fold | partial or complete response (advanced solid tumors; RECIST 1.1): No partial or complete response | stable disease as the best response (advanced solid tumors; heavily pretreated patient population): 39% | patients with stable disease for > 5 months (advanced solid tumors; in vivo): Six | time in the study with stable disease (advanced solid tumors; two patients with platinum-resistant serous ovarian cancer, one value each): 7.5 months and 14.7 months
